Source: patent US10907212B2, “Inhibitors of cell adhesion” (Regents of the University of Minnesota, priority 2016, dated 2021)
“Also recorded” adds a separate entry of the source. Where no end group is shown, it is not given here.

How the values were obtained:
[1] = test system: ovarian cancer cell aggregation and spheroid formation; test: Spheroid assay for peptides (visual scale +1 to +5); format: cell-based, human; conditions: for Spheroid-24: 24 hrs, Control = 2; for Spheroid-24 / Spheroid-48: visual scale of +1 to +5; for Spheroid-48: 48 hrs, Control = 4
Method: Spheroids were formed from the NIH:OVCAR5 cell lines described above using the liquid overlay method. One milliliter of a single cell suspension was seeded at a concentration of 50,000 cells/ml in OptiMEM® media, into 24-well tissue culture plates coated with 0.5% Seakem agarose (in complete RPMI-1640). Plates were incubated at 37° C. in a humidified incubator with 5% CO2. At various time points up to 5 days, the plates were removed from the incubator and the spheroids were photographed with a Nikon CoolPix digital camera mounted on an Olympus CK2 inverted microscope with a 4× objective. The size of the spheroids was determined using the measure tool in Adobe Photoshop. The largest spheroids were quantified (20-90 spheroids/well), in a minimum of 8 wells, for a total of >300 spheroids per cell type.
The clinical relevance is that by blocking the formation of spheroids, the cells will be more sensitive to chemotherapy (which targets the single cells that proliferate more rapidly than spheroids).
The spheroid assay for peptides 1-30 were scored using a visual scale of +1 to +5. The controls were scored at +2 (24 hrs) and +4 (48 hrs). […] It may be harder to visually assess the size at 24 hours, since the spheroids are relatively small, but and perhaps some of the peptides are affecting cell division, and that is why the spheroids are smaller than the controls at 48 hours, but not 24 hrs (this can be easily assayed with an MTT assay).

[2] = test system: nectin 4 protein on NIH:OVCAR-5 cells; test: Effect of peptides on anti-Nectin-4 antibody binding to cells as determined by flow cytometry; format: cell-based, human; conditions: for IgG MFI: IgG control primary antibody; for nectin-4 antibody binding compared to untreated control cells (in words): flow cytometry; for Flow binding: summary table, Nectin-4 antibody binding relative to control = 100
Method: Confluent monolayers of cells were detached from 75 cm^2 tissue culture flasks using Accutase cell dissociation buffer (Innovative Cell Technologies, San Diego, Calif.), washed, and labeled with mouse IgG or mAbs against Nectin-4 or Nectin-1 (2.5 μg/10^6 cells) in Flow Buffer [phosphate buffered saline (PBS) containing 2.5% newborn calf serum and 0.02% sodium azide] for 30 min at 4° C.. Cells were washed and incubated with goat anti-mouse IgG F(ab′)2 (Jackson ImmunoResearch, West Grove, Pa.), then washed again and incubated with streptavidin-allophycocyanin conjugate (Jackson ImmunoResearch, West Grove, Pa.) for 30 min each. Cells were washed and fixed in Flow Buffer containing 1% formaldehyde and analyzed in the University of Minnesota Flow Cytometry Resource with a BD Accuri™ C6 flow cytometer (BD Biosciences, San Jose, Calif.) using the Accuri™ software.
Briefly, NIH:OVCAR-5 cells that natively express a moderate amount of nectin 4 protein were incubated for 30 minutes in 150 μg/mL of soluble peptide in DMSO. After incubation, the cells were washed, and then triple antibody stained using mouse anti-nectin 4 (or IgG control) primary antibody, biotinylated goat anti-mouse secondary antibody, and streptavidin APC tertiary antibody. Finally, utilizing the University of Minnesota flow core's Accuri C6 flow cytometer, the relative antibody binding affinity for control and peptide-treated samples was quantitated and compared. Data was collected for each of the 57 peptides generated.

[3] = Run Two, 150 μg/mL peptide, 30 minutes, Control 2 = 49,491
[4] = Run Two, antibody binding relative to Control 2 = 100.00
[5] = Run One, 150 μg/mL peptide, 30 minutes, Control 1 = 15,015
[6] = Run One, 150 μg/mL peptide, 30 minutes, Control 1 = 1,670
[7] = Run One, antibody binding relative to Control 1 = 100.00
[8] = Run Three, 150 μg/mL peptide, 30 minutes, Control 3 = 13,070.20
[9] = Run Three, antibody binding relative to Control 3 = 100.00
[10] = Run Four, 150 μg/mL peptide, 30 minutes, Control 4 = 9,631.58
[11] = Run Four, Control 4 = 9.387504873
[12] = Run Four, antibody binding relative to Control 4 = 100

Substance	Spheroid-24 [1]	N4 MFI [2, 3]	N4 MFI/IgG MFI ([2]; Run Two, Control 2 = 9.46)	IgG MFI ([2]; Run Two, Control 2 = 5,233)	nectin-4 antibody binding, percent of control [2, 4]	nectin-4 antibody binding compared to untreated control cells (in words) ([2]; 150 μg/mL peptide)	Flow binding [2]	Spheroid-48 [1]	N4 MFI [2, 5]	IgG MFI [2, 6]	N4 MFI/IgG MFI ([2]; Run One, Control 1 = 8.99)	nectin-4 antibody binding, percent of control [2, 7]	other results
SNEFSSRDSQVTVD-NH2 (listed as Homo sapiens) [Peptide 25]	2	7,756	2.16	3,584	9.43	reduction in nectin-4 antibody binding	9.40%						
EVKGTTSSRSFKHS-NH2 (listed as Homo sapiens) [Peptide 14]	1							2	13,217	3,125	4.23	75.62	
VVLGQDAKLPCFYR-NH2 (listed as Homo sapiens) [Peptide 2]								3	11,895	2,458	4.84	70.72	
ICEFATFPTGNRES-NH2 (listed as Homo sapiens) [Peptide 38]	1							3					N4 MFI [2, 8]: 12,128.26; N4 MFI/IgG MFI ([2]; Run Three, Control 3 = 9.83): 7.73; IgG MFI ([2]; Run Three, Control 3 = 1330): 1568; nectin-4 antibody binding, percent of control [2, 9]: 89.95
WTTLNGSLPKGVEAQNRT-NH2 (listed as Homo sapiens) [Peptide 57]						reduction in nectin-4 antibody binding		3					N4 MFI ([2]; Run Five, 150 μg/mL peptide, 30 minutes, Control 5 = 17,768.90): 14,705.92; N4 MFI/IgG MFI ([2]; Run Five, Control 5 = 2.142155332): 1.874; IgG MFI ([2]; Run Five, Control 5 = 8,294.87): 7,848.89; nectin-4 antibody binding, percent of control ([2]; Run Five, antibody binding relative to Control 5 = 100): 72.38
EGSPAPSVTWDTEV-NH2 (listed as Homo sapiens) [Peptide 13]	1							2	15,623	3,720	4.20	89.19	
LVPSRSMNGQPLTC-NH2 (listed as Homo sapiens) [Peptide 16]	1							1	12,161	2,432	5.00	72.90	
VDVLDPQEDSGKQV-NH2 (listed as Homo sapiens) [Peptide 26]	1	35,299	8.92	3,956	70.82			2					
YRGDSGEQVGQVAW-NH2 (listed as Homo sapiens) [Peptide 3]						reduction in nectin-4 antibody binding	37%	2	6,987	2,044	3.42	37.04	
QARLRLRVLVPPLP-NH2 (listed as Homo sapiens) [Peptide 10]	1					reduction in nectin-4 antibody binding; also recorded: reduced antibody binding	12.50%	2	4,119	2,452	1.68	12.49	spheroid size (in words) [1]: reduced spheroid size
RVDGDTLGFPPLTT-NH2 (listed as Homo sapiens) [Peptide 23]	1	18,902	5.66	3,342	35.16	reduction in nectin-4 antibody binding	35%	2					
FANPLPSVKITQVTW-NH2 (listed as Homo sapiens) [Peptide 32]						reduction in nectin-4 antibody binding	13%	2					N4 MFI [2, 8]: 2,542.31; N4 MFI/IgG MFI ([2]; Run Three, Control 3 = 9.83): 2.47; IgG MFI ([2]; Run Three, Control 3 = 1330): 1029; nectin-4 antibody binding, percent of control [2, 9]: 12.89
WTRLDGPLPSGVRVDGDT-NH2 (listed as Homo sapiens) [Peptide 28]		41,302	10.83	3,815	84.70			2					
ECRVSTFPAGSFQA-NH2 (listed as Homo sapiens) [Peptide 9]						reduction in nectin-4 antibody binding	50%	3	8,578	1,886	4.55	50.15	
TGNGIYINGRGHLV-NH2 (listed as Homo sapiens) [Peptide 29]	3	18,643	6.04	3,087	35.15	reduction in nectin-4 antibody binding	35%						
NPNGTVTVISRYRLV-NH2 (listed as Homo sapiens) [Peptide 44]	3												N4 MFI [2, 10]: 7,802.22; N4 MFI/IgG MFI [2, 11]: 8.481; IgG MFI ([2]; Run Four, Control 4 = 1,026): 920; nectin-4 antibody binding, percent of control [2, 12]: 79.97
CLSEGQPPPSYNWT-NH2 (listed as Homo sapiens) [Peptide 21]	1	34,351	8.61	3,989	68.60			2					
VSPAYEGRVEQPPP-NH2 (listed as Homo sapiens) [Peptide 6]	1							2	12,682	1,622	7.82	82.88	
SGKQVDLVSAS-NH2 (listed as Homo sapiens) [Peptide 27]	1	22,824	5.57	4,099	42.31	reduction in nectin-4 antibody binding	42%	2					
TTEHSGIYVCHVSN-NH2 (listed as Homo sapiens) [Peptide 24]		33,353	8.76	3,808	66.76			3					
GQDDKVLVATCTSANG-NH2 (listed as Homo sapiens) [Peptide 41]	3												N4 MFI [2, 10]: 9,040.73; N4 MFI/IgG MFI [2, 11]: 8.302; IgG MFI ([2]; Run Four, Control 4 = 1,026): 1,089; nectin-4 antibody binding, percent of control [2, 12]: 92.4
TCVVSHPGLLQDQR-NH2 (listed as Homo sapiens) [Peptide 17]	1							2	20,511	8,686	2.36	88.61	
HSQVVQVNDSMYGF-NH2 (listed as Homo sapiens) [Peptide 30]		205,442	3.24	63,394	320.95	erroneous/outlier due to solubility issues	321%	3					
